From US20210186903A1, “TREATMENT FOR DEMYELINATING DISEASE” (CAMBRIDGE ENTERPRISE LIMITED, priority 2018, published 2021)
Entries after “also recorded” stand apart in the source; their conditions may differ.

What was measured:
[1] = system: young adult OPCs (2-3 months old); settings: T3 40 ng/ml, 9cRA 50 nM, miconazole 1 μM, benztropine 1.5 μM, O4, CNPase, MBP markers
Procedure: Adult rats (2-27 months) were decapitated after lethal injection of phenobarbital into the tail vein. The brains were removed quickly and placed into ice-cold isolation medium (Tab. S3, alternatively Hibernate A (Brainbits). The telencephalon and cerebellum were dissected in isolation medium; meninges, and the olfactory bulb were mechanically removed and the brain tissue was mechanically minced into 1 mm3 pieces. The tissue pieces were spun down at 100 g for 1 min at RT and the tissue was washed in HBSS− (no Mg2+ and Ca2+, Gibco). Each half of the brain was mixed with 5 ml of dissociation solution (34 U/ml papain (Worthington), 20 μg/ml DNAse Type IV (Gibco) in isolation medium). The brain tissue was dissociated on a shaker (50 rpm) 494 for 40 min at 35° C. The digestion was stopped by addition of ice cold HBSS−. The tissue was centrifuged (200 g, 3 min, RT), the supernatant completely aspirated and the tissue resuspended in isolation medium supplemented with 2% B27 and 2 mM sodium-pyruvate (trituration solution). The tissue was allowed to sit in this solution for 5 min. To obtain a single cell suspension the tissue suspension was triturated 10 times using first a 5 ml serological pipette and subsequently three fire polished glass pipettes (opening diameter >0.5 mm). […]

aged OPCs [2] = assay: Differentiation assay of cultured aged OPCs; type: cell-based, rat; settings: for differentiation of aged OPCs: aged OPCs (20-24 months), T3 40 ng/ml, 9cRA 50 nM, miconazole 1 μM, benztropine 1.5 μM
Procedure: Adult rats (2-27 months) were decapitated after lethal injection of phenobarbital into the tail vein. The brains were removed quickly and placed into ice-cold isolation medium (Tab. S3, alternatively Hibernate A (Brainbits). The telencephalon and cerebellum were dissected in isolation medium; meninges, and the olfactory bulb were mechanically removed and the brain tissue was mechanically minced into 1 mm3 pieces. The tissue pieces were spun down at 100 g for 1 min at RT and the tissue was washed in HBSS− (no Mg2+ and Ca2+, Gibco). Each half of the brain was mixed with 5 ml of dissociation solution (34 U/ml papain (Worthington), 20 μg/ml DNAse Type IV (Gibco) in isolation medium). The brain tissue was dissociated on a shaker (50 rpm) 494 for 40 min at 35° C. The digestion was stopped by addition of ice cold HBSS−. The tissue was centrifuged (200 g, 3 min, RT), the supernatant completely aspirated and the tissue resuspended in isolation medium supplemented with 2% B27 and 2 mM sodium-pyruvate (trituration solution). The tissue was allowed to sit in this solution for 5 min. To obtain a single cell suspension the tissue suspension was triturated 10 times using first a 5 ml serological pipette and subsequently three fire polished glass pipettes (opening diameter >0.5 mm). After each trituration step the tissue suspension was allowed to sediment (approximately 1-2 min) and the supernatant (approximately 2 ml), containing the cells, was transferred into a fresh tube. After each round of trituration 2 ml of fresh trituration solution were added. To remove accidentally transferred undigested tissue bits, the collected supernatant was filtered through 70 μm cell strainers into tubes that contained 90% isotonic Percoll (GE Healthcare, 17-0891-01, in 10×PBS pH7.2 (Lifetech). The final volume was topped up with phenol-red free DMEM/F12 with HEPES (Gibco) and mixed to yield a homogenous suspension with a final Percoll concentration of 22.5%. The single cell suspension was separated from remaining debris particles by gradient density centrifugation (800 g, 20 min, RT, without break). The myelin debris and all layers without cells were discarded and the brain cell containing phase (last 2 ml) and cell pellet were resuspended in HBSS+ and combined in a fresh 15 ml tubes and centrifuged (300 g, 5 min, RT). The cell pellet was resuspended in red blood cell lysis buffer (Sigma, R7757) and incubated for 1 min at RT to remove red blood cells. 10 ml of HBSS+ were added to this cell suspension and spun down (300 g, 5 min, RT). The cell pellets were resuspended in 0.5 ml modified Milteny washing buffer (MWB, 2 mM EDTA, 2 mM Na-Pyruvate, 0.5% BSA in PBS, pH 7.3) supplemented with 10 ng/ml human recombinant insulin (Gibco). […]

aged female SD rats = assay: Remyelination after ethidium bromide lesion of caudal cerebellar peduncle in aged rats; type: in vivo, rat; settings: for degree of remyelination versus control animals: aged rats fed ad libitum, metformin 300 mg/kg bodyweight in drinking water from 15 months, lesion at 18 months, assessed 50 days later, rank
Procedure: The animals were housed under standard laboratory conditions on a 12 h light/dark cycle with constant access to food and water. […] For metformin treatment 15 months old female SD rats that were fed ad libitum received metformin (Glucophage) in their drinking water (300 mg/kg bodyweight per day). Metformin treatment was interrupted for two days before and three days after surgery and then commenced to the end of the study (21 days after lesion induction). Fluid consumption was continuously monitored to adapt dosages. For studies involving demyelination, female Sprague Dawley rats (Harlan Laboratories) 18 months of age were used. The rats were anesthetized with buprenorphine (0.03 mg/kg, s.c.) 471 and 2.5% isoflurane. Demyelination was induced by stereotaxic injection of 4 μl of 0.01% ethidium bromide (EB) into the caudal cerebellar peduncles (CCPs), as previously described 28. EB was delivered at a rate of 1 μl/min. After EB delivery the injection needle remained in position for additional 4 min. To assess remyelination the rats were transcardially perfused with 4% glutaraldehyde and 0.4 mM CaCl2) in PBS. The cerebellum was cut in to transverse 1 mm thick sections. The tissue was fixed in 2% osmium-tetroxide at 4° C. overnight, dehydrated through a series of washes in ethanol and propylene-oxide and embedded in resin. From the resin blocks 1 μm thick sections were cut and stained with 1% toluidine blue.

aged OPCs [3] = assay: Comet assay (DNA damage) of aged OPCs; type: cell-based, rat
Procedure: For comet assays of freshly isolated OPCs approximately 5000 OPCs were resuspended in 100 μl PBS and mixed with 300 μl 1% low melting point agarose (37° C.). Alternatively, when OPCs were cultured prior to the assay, the cells were detached using TrypLE 1× Select (Gibco) for 8 min at 37° C. The comet assay was then performed as described in reference 33. Briefly, OPCs were centrifuged at 300 g for 5 min. at room temperature and the cell pellet was resuspended with 100 μl PBS and then mixed with 300 μl molten low-melting point agarose pre-incubated at 37° C. The cell-agarose suspension was then applied gently onto polysine slides that were pre-treated with 1% agarose and allowed 590 to solidify at 4° C. The slides were submersed in alkaline cell lysis buffer (0.3M NaOH, 100 mM EDTA, 0.1% (w/v) N592 Lauroylsarcosine (Sigma, 61745), 1.2M NaCl in ddH2O) for 16 hours at 4° C. in the dark. […] Finally, electrophoresed and propidium iodide stained DNA was visualized using a Zeiss Axiovision Fluorescence microscope (Carl Zeiss), and 50-100 nuclei per animal were visually scored according to published protocols^34. Statistical significance was determined comparing respective damage categories between experimental groups by a two-tailed unpaired t-test. […]

aged OPCs [4] = assay: qRT-PCR for OPC genes and Cdkn2a in cultured aged OPCs; type: cell-based, rat; settings: aged OPCs (≥18 months)
Procedure: After isolation, OPCs were left to recover in OPC medium (60 μg/ml N-Acetyl cysteine (Sigma), 10 μg/ml human recombinant insulin (Gibco), 1 mM sodium pyruvate (Gibco), 50 μg/ml apo-transferrin (Sigma), 16.1 μg/ml putrescine (Sigma), 40 ng/ml sodium selenite (Sigma), 60 ng/ml progesterone (Sigma), 330 μg/ml bovine serum albumin (Sigma)) supplemented with b-FGF and PDGF (30 ng/ml each, Peprotech).
RNA was isolated from freshly purified OPCs or from cultured OPCs according to the Directzol RNA MicroPrep Kit (Zymo Research; R2061). All RNA samples were stored at −80° C. prior to further processing. cDNA was generated using the QuantiTect Reverse Transcription Kit's according to the instructions of the manufacturer (Qiagen; 205310). For RT-qPCR, primers (see Extended Data Tab. 5) were used at a concentration of […]. The efficiency of each primer was greater than […] as determined for each primer pair by serial dilutions of OPC cDNA. cDNA, primers, and the Syber Green Master Mix (Qiagen; 04141) were mixed as instructed by the manufacturer, and RT-qPCR and melting curve analysis were performed on Life Technologies' Quantstudio 6 Flex Real-Time PCR System. Fold changes in gene expression were calculated using the delta delta Ct method in Microsoft Excel. Statistical significance was determined using two-tailed unpaired t-tests assuming equal variances.

With CC1=C(/C=C/C(C)=C\C=C\C(C)=C\C(=O)O)C(C)(C)CCC1 [9-cis-retinoic acid] the “differentiation of young OPCs” value [1] was “enhanced differentiation in young” and the “differentiation of aged OPCs” value (aged OPCs [2]) was “but not aged OPCs”.
CN1[C@@H]2CC[C@H]1C[C@@H](OC(c1ccccc1)c1ccccc1)C2 [benztropine] was tested, and the “differentiation of young OPCs” value [1] was “enhanced differentiation in young” and the “differentiation of aged OPCs” value (aged OPCs [2]) was “but not aged OPCs”.
CN(C)C(=N)NC(=N)N [metformin, N,N-dimethylbiguanide] was tested, and the “degree of remyelination versus control animals” value (aged female SD rats) was “enhances remyelination in aged rats”, the “degree of remyelination versus control animals” value (aged female SD rats; listed as Metformin) was “significantly higher compared to control animals” and the “degree of remyelination versus ADF animals” value (aged female SD rats; aged rats, metformin 300 mg/kg in drinking water for three months prior to lesion, compared with alternate day fasting) was “comparable to animals undergoing ADF”. The “DNA damage, comet assay” value (aged OPCs [3]; aged OPCs (≥18 months), 100 μM metformin during first 5 days of culture) was “less DNA damage”, the “hallmarks of aging of aged OPCs” value (aged OPCs [3]; aged OPCs, DNA damage among the hallmarks) was “ameliorates hallmarks of ageing” and the “proportion of MBP expressing oligodendrocytes with highly arborized morphology” value (aged OPCs [2]; aged OPCs exposed to metformin, in the presence of pro-differentiation factors) was “significant increase”. For the same compound, the “differentiation of aged OPCs (differentiation potential), agent added before differentiation” value (aged OPCs [2]; aged OPCs, agent added prior to pro-differentiation compounds / onset of differentiation, Olig2+MBP+ cells) was “restores the ability of aged OPCs to differentiate; also recorded: enhanced differentiation of aged OPCs”, the “expression of Cdkn2a (senescence marker)” value (aged OPCs [4]; 100 μM metformin during first 5 days of culture) was “expressed significantly less Cdkn2a” and the “expression of Pdgfra and Ascl1 (OPC self-renewal genes)” value (aged OPCs [4]; 100 μM metformin during first 5 days of culture with growth factors) was “increased their expression of Pdgfra and Ascl1”.
